Laboratory results from patent publication US8841452B1, “Process for recovery of nalmefene hydrochloride” (H. Lundbeck A/S, priority 2011, dated 2014).
Where a name gives a salt, the structure may show the parent alone.

Key:
[1] = crystalline form; improves API stability under storage and formulation conditions; cited from earlier work
[2] = hydrochloride salt, doses of 10 to 40 mg taken when the patient experiences a craving for alcohol; cited from earlier work
[3] = compared to naltrexone; cited from earlier work
[4] = compared to naltrexone; cited from earlier work; remark: listed apart in the source
[5] = compared to naltrexone; cited from earlier work; remark: listed apart in the source
[6] = solubility in aqueous medium; type: physicochemical; conditions: compared to naltrexone itself
From the text: Since only compounds containing a carbonyl moiety can react with the bisulfite anion nalmefene cannot undergo to such reaction. The bisulfite adduct of naltrexone is more soluble than naltrexone itself thus permitting the removal of this impurity.

Question: Which hygroscopic properties [1] does the source give for `C=C1CC[C@@]2(O)[C@H]3Cc4ccc(O)c5c4[C@@]2(CCN3CC2CC2)[C@H]1O5` [nalmefene hydrochloride dihydrate] here?
Answer: The hygroscopic properties was “non-hygroscopic”.

Question: Which “effect in the management of alcohol dependency” value [2] does the source give for `C=C1CC[C@@]2(O)[C@H]3Cc4ccc(O)c5c4[C@@]2(CCN3CC2CC2)[C@H]1O5` [nalmefene, 17-(cyclopropylmethyl)-4,5-alpha-epoxy-6-methylenemorphinan-3,14-diol hydrochloride] here?
Answer: The value was “good effect”.

Question: And the half-life [3]?
Answer: Its half-life is “longer”.

Question: What about the oral bioavailability [4] of the same compound?
Answer: The oral bioavailability was “higher”.

Question: And the dose-dependent liver toxicity [5]?
Answer: The dose-dependent liver toxicity was “absence”.

Question: Which solubility [6] does the source give for `O=S(=O)(O)C1(O)CC[C@@]2(O)[C@H]3Cc4ccc(O)c5c4[C@@]2(CCN3CC2CC2)[C@H]1O5` (stereo partly drawn) [bisulfite adduct of naltrexone] here?
Answer: The solubility was “more soluble”.
